Patent publication US20200282010A1, “IMMUNOGENIC COMPOSITIONS AND USES THEREFOR” (Epiaxis Therapeutics Pty Ltd, priority 2017, published 2020)

Legend:
[1] = test system: CD8^+ T-cells isolated from melanoma patient's bloods; test: Immunofluorescence of nuclear PKC-θ and ZEB1 in patient CD8+ T-cells; assay type: cell-based, human; details: all patient samples; vehicle or PMA/CI; inhibitor 8 μm; FIG. 3
Method: FIG. 3 is a photographic representation depicting a PKC-θ resistance signature in CD8^+ T-cells. A-B) CD8s were isolated from melanoma patient liquid biopsies (CR=complete response, SD=Stable Disease, PD=progression of disease) and were stimulated with PMA/CI and pre-clinically screened with either vehicle control or PKCθi nuclear peptide inhibitor. Samples were fixed and immunofluorescence microscopy was performed on these cells with primary antibodies for ZEB1, PKC-θ, and CD8. Representative images for each dataset are shown. Graph represents the TNFI for PKC-Theta and TNFI for ZEB1 measured using ImageJ to select the nucleus minus background (n=>20 cells/sample). Plot profiles for each cohort for ZEB1 and PKC-θ are also depicted (RED=ZEB1, Green=PKC-θ) with the PCC indicated. Graphs depicting the % inhibition or induction based on protein expression where also plotted for each protein target relative to untreated sample. C-D) CD8s were isolated from melanoma patient liquid biopsies (CR=complete response, PR=partial response, PD=progression of disease) and were stimulated with PMA/CI and pre-clinically screened with either vehicle control or our PKCθi nuclear peptide inhibitor. […] Graph represents the TNFI for TNF-α and TNFI for IFN-γ measured using ImageJ to select the nucleus minus background (n=>20 cells/sample). […]

MCF7 cells = test: Cell proliferation (WST-1 assay); assay type: cell-based; details: FIG. 1E
From the text: (§1) FIG. 1 is a graphical, schematic and photographic representation showing that PKC-θ can be targeted for therapeutic intervention. A) Depicts the strength of binding of recombinant purified His6-PKC-θ to increasing concentrations of different subunits and subunit combinations (α2, α2β1, and β1) of the importin α/β heterodimer nuclear transport receptor using an AlphaScreen® binding assay as described in Wagstaff et al. (2011. Journal of Biomolecular Screening 16 (2):192-200). B-C) Depicts protein structure of PKC-θ indicating binding locations for the PKC-θ peptide inhibitor, PKCθi (RKEIDPPFRPKVK), including the nuclear localization sequence (NLS) of PKC-θ. D) The specificity of PKCθi was examined on cells treated with this peptide inhibitor. Cells were screened with primary antibodies to PKC-θ (T538p), PKC-β2, PKC-β1, PKC-α, PKC-ε and PKC-γ. The nuclear to cytoplasmic fluorescence ratio (Fn/c) using the equation: Fn/c=(Fn−Fb)/(Fc−Fb), where Fn is nuclear fluorescence, Fc is cytoplasmic fluorescence, and Fb is background fluorescence was used to determine the impact on nuclear translocation/localization. […] EC^50 of inhibitors calculated using GraphPad PRISM software. F) The PKC-θ kinase activity was measured using the PKC kinase activity kit from ENZO life sciences and recombinant PKC-θ; C27 is an inhibitor of PKC-θ kinase activity, which is disclosed in Jimenez et al. (2013. […]

PKC-α = molecular target: T1, PKC-α (Homo sapiens, UniProt P17252); test: Nuclear localization of PKC-α (Fn/c, immunofluorescence), specificity; assay type: cell-based; details: MCF7 breast cancer cell line; FIG. 1D
T1 construct: endogenous in cells; host or cells: MCF7
From the text: as §1

nuclear localization of PKC-α (PKC-α): no effect
Sequence: RKEIDPPFRPKVK [PKCθi]
expression of ZEB1 [1]: strikingly abrogated
expression of nuclear PKC-θ [1]: strikingly abrogated
proliferation of MCF7 cells (MCF7 cells): significantly inhibit
